Reference: paper PMC8397418, “Novel Bis-Thiazole Derivatives: Synthesis and Potential Cytotoxic Activity Through Apoptosis With Molecular Docking Approaches” (Frontiers in Chemistry, 2021)

Columns and labels:
[1] = test system: A2780 ovarian cancer cells; test: MTT cytotoxicity assay, A2780; type: cell-based, human; conditions: Homo sapiens, A2780; MTT, 72 h, n = 3; read-out: IC50 A2780 (Ovarian)
Procedure: (§1) The synthesized derivatives were screened for their cytotoxic activities against five cancer cell lines (two breast cancer cell lines: MCF-7 and MDA-MB-231, two ovarian cancer cell lines: A2780 and KF-28, and one cervical cancer cell line: Hela). This study was performed using serial concentrations of 25, 50, 100, 150, and 200 µM of each compound using the MTT assay. Percentages of cell viability of the tested compounds with serial concentration against the tested panel of cell lines are depicted in Figure 1, in which there is a decrease in the cell viability with increasing concentrations in a dose–response pattern. […] Therefore, compounds 5a, 5b, and 5f were thought worthwhile to further investigate their effects as either cytotoxic or antiproliferative effects and whether any of them is an inducer of apoptotic cell death in the representative cancer cell lines KF-28 and A2780.
(§2) The human ovarian serous carcinoma cell line KF-28 was kindly provided by Prof. Yoshihiro Kikuchi (Department of Obstetrics and Gynecology, National Defense Medical College, Saitama, Japan), and A2780 cell line was purchased from the ECACC (ECACC 93112519). The cells were maintained in RPMI-1640 (Sigma-Aldrich, United States). The cervical cancer cell line, Hela cells, breast cancer cell line, MCF-7, and MDA-MB-231 were purchased from the ATCC and cultured in DMEM. Both types of media were supplemented with 2 mM L-glutamine (Lonza, Belgium), 10% FBS (Sigma, St. Louis, MO, United States), and 1% penicillin/streptomycin (Lonza, Belgium). All cells were incubated at 37°C in 5% CO2 atmosphere (NuAire). All cancer cell lines were cultured according to the routine tissue culture work as discussed by the Freshney group ([Freshney, 2010]). The cells were plated at a density of 5,000 cells in triplicates in a 96-well plate. On the next day, the cells were treated with the indicated compound(s) at the indicated concentrations in a final volume of 100 μL media. Cell viability was assessed after 72 h using MTT solution (Promega) ([Mosmann, 1983]). 20 μL of the reagent was added to each well, the plate was incubated for 3 h, […] was subsequently measured (570 nm) using a plate reader, and then the IC50 values were calculated using Excel ([Tantawy et al., 2020]).

[2] = test system: MCF-7 breast cancer cells; test: MTT cytotoxicity assay, MCF-7; type: cell-based, human; conditions: Homo sapiens, MCF7; MTT, 72 h, n = 3; read-out: IC50 MCF-7 (Breast)
Procedure: as §1, §2

[3] = test system: Hela cervical cancer cells; test: MTT cytotoxicity assay, Hela; type: cell-based; conditions: Homo sapiens, MTT, 72 h, n = 3, read-out: IC50 Hela (Cervical)
Procedure: as §1, §2

[4] = test system: MEF normal mouse embryonic fibroblast; test: MTT cytotoxicity assay, MEF; type: cell-based; conditions: n = 3
KF-28 cells [5] = test: Quantitative RT-PCR of apoptosis-related genes; type: cell-based, human; conditions: 48 h
Procedure: Next, we investigated the pathway through which apoptosis is induced by compounds 5a, 5b, and 5f in KF-28 cells. For that purpose, after treating cells with each compound, RNA was extracted, cDNA was synthesized, and RT-PCR was performed to quantify the mRNA expression of pro-apoptotic genes (p53, bax, puma), caspases 3, 8 9, anti-apoptotic gene (Bcl-2), and Pim-1 kinase genes in KF-28 cells.
The cells were grown in 10 cm^2 culture dishes to a monolayer with a confluence of 90% in triplicates. After different treatments, the cells were washed twice with PBS and then pelleted by centrifugation for 5 min at 1800 rpm at 4°C. The cells were lysed by Trizol reagent (Invitrogen), and then total RNA was purified with the phenol/chloroform extraction method. Concentration and purity of RNA samples were measured using NanoDrop. The RNA purity was assessed as OD260/OD230 (≥1.5) using NanoDrop. gDNA was eliminated by DNase. The RNA from three biological samples was then pooled for mRNA analysis, cDNA was synthesized using the iScript kit (Bio-Rad, United States) according to the manufacturer’s recommendation, and RT-PCRs consisted of 8.34 µL Fluocycle® II SYBR® (Euroclone, Milan, Italy), 0.5 µL of both 10 µM forward and reverse primers, 1 µL cDNA, and 6.34 µL of H2O. All reactions were performed for 35 cycles using the following temperature profile: 95°C for 5 min (initial denaturation), 95°C for […] (denaturation), 55°C for […] (annealing), and 72°C for […] (extension) ([Nafie et al., 2020a]; [Sarhan et al., 2020]). Then, the Ct values were collected, with the folds of changes between all the samples.

[6] = test system: KF-28 ovarian cancer cells; test: MTT cytotoxicity assay, KF-28; type: cell-based, human; conditions: Homo sapiens; MTT, 72 h, n = 3; read-out: IC50 KF-28 (Ovarian)
Procedure: as §1, §2

KF-28 cells [7] = test: DNA content and cell cycle analysis (PI, flow cytometry); type: cell-based, human; conditions: 200 µM, 48 h; for Cell cycle phase G1 population: DMSO control 72%
Procedure: Studying the cell cycle phases by measuring DNA content is a crucial test that helps in evaluating the impact of a given drug(s) on dividing cells and may reflect the mechanism through which this drug(s) affects those cells. […] Compounds 5a, 5b, 5c, 5f, 5g, and 9 were added to similar numbers of cells at 200 µM for 48 h, and then, the different cell cycle phases were assessed by flow cytometric analysis.
The cells were seeded into six-well culture plates (3–5 × 10^5 cells/well) and incubated overnight at 37°C, under 5% CO2. The cells were then treated with indicated compounds for 48 h. Next, media supernatants and the cells were collected and washed with ice-cold PBS. Next, the cells were stained with PI (10 mg/ml) for 30 min and analyzed for DNA contents using flow cytometry analysis using an FL2 (λex/em 535/617 nm) signal detector (ACEA Novocyte™ flow cytometer, ACEA Biosciences, Inc., San Diego, CA, United States). For each sample, 12,000 events are acquired. Cell cycle distribution is calculated using a CytoFLex machine and analyzed by CytExpert software. Flow cytometric methodologies (annexin V/PI staining with cell cycle analyses) are carried out as previously described ([Nafie et al., 2020a]; [Nafie et al., 2020b]; [Gad et al., 2020]).

Cc1[nH]c(=NN=C2CCC(=NN=c3[nH]c(C)c(N=Nc4ccccc4)s3)CC2)sc1N=Nc1ccccc1 [5a, 1,4-Bis((5-phenylazo-4-methylthiazol-2-ylidene)hydrazono)cyclohexane]
IC50 [1]: 77.9 µM | IC50 [2]: > 200 µM | IC50 [3]: > 200 µM | IC50 [4]: 7.08 µM | Bcl-2 expression, maximum decrease (KF-28 cells [5]): ≈ 0.5 fold | Pim-1 kinase expression, maximum decrease (KF-28 cells [5]): ≈ 0.31 fold | bax mRNA level, maximum increase (KF-28 cells [5]): ~5.2 fold | caspase 3 mRNA level, maximum increase (KF-28 cells [5]): ≈ 6.2 fold | caspase 9 mRNA level, maximum increase (KF-28 cells [5]): ~5.6 fold | p53 mRNA relative expression (KF-28 cells [5]): ≈ 4.07 fold | puma mRNA level, maximum increase (KF-28 cells [5]): ≈ 5.08 fold | IC50 [6]: < 25 µM | Cell cycle phase S population (KF-28 cells [7]): 11.4% | Cell cycle phase G1 population (KF-28 cells [7]): 75.9%

Cc1[nH]c(=NN=C2CCC(=NN=c3[nH]c(C)c(N=Nc4ccccc4Cl)s3)CC2)sc1N=Nc1ccccc1Cl [5f, 1,4-Bis((5-(2-chlorophenylazo)-4-methylthiazol-2-ylidene)hydrazono)cyclohexane]
IC50 [1]: < 25 µM | IC50 [2]: > 200 µM | IC50 [3]: > 200 µM | IC50 [4]: > 200 µM | Bcl-2 expression, maximum decrease (KF-28 cells [5]): ≈ 0.76 fold | Pim-1 kinase expression, maximum decrease (KF-28 cells [5]): ≈ 0.86 fold | bax mRNA level, maximum increase (KF-28 cells [5]): ~2.33 fold | caspase 3 mRNA level, maximum increase (KF-28 cells [5]): ≈ 6.9 fold | caspase 8 mRNA level, maximum increase (KF-28 cells [5]): ~5.5 fold | caspase 9 mRNA level, maximum increase (KF-28 cells [5]): ~6.0 fold | p53 mRNA relative expression (KF-28 cells [5]): ≈ 3.81 fold | puma mRNA level, maximum increase (KF-28 cells [5]): ≈ 3.14 fold | IC50 [6]: < 25 µM | Cell cycle phase G1 population (KF-28 cells [7]): 76.9%

Cc1ccc(N=Nc2sc(=NN=C3CCC(=NN=c4[nH]c(C)c(N=Nc5ccc(C)cc5)s4)CC3)[nH]c2C)cc1 [5b, 1,4-Bis((5-(4-tolylazo)-4-methylthiazol-2-ylidene)hydrazono)cyclohexane]
IC50 [1]: 94.4 µM | IC50 [2]: > 200 µM | IC50 [3]: > 200 µM | IC50 [4]: 2.34 µM | bax mRNA level, maximum increase (KF-28 cells [5]): ~3.33 fold | p53 mRNA relative expression (KF-28 cells [5]): ≈ 3.41 fold | puma mRNA level, maximum increase (KF-28 cells [5]): ≈ 4.14 fold | IC50 [6]: < 25 µM | Cell cycle phase S population (KF-28 cells [7]): 4.5% | Cell cycle phase G1 population (KF-28 cells [7]): 85.6%
